Read-outs that look alike come from different tables or passages of the source.
Columns and labels:
[1] = system: MX-1 human breast carcinoma cell line (BR+); experiment: In vitro cytotoxicity, standard MTT assay, MX-1 cells; format: cell-based
Protocol: (§1) Cell Culture. All cell lines were obtained from ATCC unless otherwise noted. Cells were cultured in RPMI-1640 cell culture medium (Gibco) or DMEM (Gibco), both supplemented with 5% (v/v) heat-inactivated fetal bovine serum (FBS), 5% (v/v) NuSerum, and 1% (v/v) penicillin and streptomycin (PenStrep) at 37° C. in a humidified atmosphere with 5% CO2. MX-1 and ID8 (obtained from University of Kansas Medical Center) cells were cultured as monolayers on 100 mm tissue culture dishes in supplemented RPMI-1640. L1210 and L1210FR (a gift from Dr. Gregory Russell-Jones, Access Pharmaceuticals Pty Ltd., Australia) were grown as a suspension in supplemented RPMI-1640, and WI-38 as a monolayer in supplemented DMEM. Cells were harvested, collected by centrifugation at 850 rpm for 5 min, and resuspended in fresh culture medium. Cell cultures were routinely divided by treatment with trypsin (TrypLE, Gibco) as needed every 2-4 days and collected by centrifugation at 850 rpm for 5 min, and resuspended in fresh cell culture medium, containing varying cell densities for subsequent biological experiments and analysis.
(§2) In Vitro Cytotoxicity Assays. […] Cells were harvested, collected, and resuspended in 100 μL cell culture medium at concentrations ranging from 0.5-1.5×10^4 cells per well in a 96-well plate. For adhesive cell types, cells were allowed to descend to the bottom of the wells overnight, and fresh medium was added to each well upon removal of the old medium.
(§3) For the MTT assay (Table 1 and the Assay 1 in Table 2) of paclitaxel, taxoid 3 and conjugates 1 and 15, cells were resuspended in 200 μL medium with 8,000 to 10,000 cells per well of a 96-well plate and incubated at 37° C. for 24 h before drug treatment. In DMSO stock solutions, each drug or conjugate was diluted to a series of concentrations in cell culture medium to prepare test solutions. After removing the old medium, these test solutions were added to the wells in the 96-well plate to give the final concentrations ranging from 0.5 to 5,000 nM (100 μL), and the cells were subsequently cultured at 37° C. for 48 h (Table 1) or 72 h (Table 2, Assay 1). For the leukemia cell lines, L1210 and L1210FR, cells were harvested, collected, and resuspended in the test solutions ranging from 0.5 to 5,000 nM (100 μL) at 0.5 to 0.8 ×10^4 cells per well in a 96-well plate and subsequently incubated at 37° C. for 48 h (Table 1) or 72 h (Table 2, Assay 1).
(§4) In the Assay 2 (Table 2), cells were incubated with 1 or 15 at 37° C. for 24 h, and the drug medium was removed. Then, treated cells were thoroughly washed with PBS, and GSH-OEt (6 equiv. to conjugate) in cell culture medium (200 μL) was added to the wells. These cells were incubated at 37° C. for an additional 48 h, i.e., the total incubation time was 72 h.
(§5) In the Assay 3 (Table 2), cells were incubated with 1 or 15 at 37° C. for 24 h, and GSH-OEt (6 equivalents) in cell culture medium (100 μL) was directly added to the wells. These cells were incubated at 37° C. for an additional 48 h, i.e. the total incubation time was also 72 h.
(§6) For all experiments, after removing the test medium, fresh solution of MTT in PBS (40 μL of 0.5 mg MTT/mL) was added to the wells, and the cells were incubated at 37° C. for 3 h. The MTT solution was then removed, and the resulting insoluble violet formazan crystals were dissolved in 0.1 N HCl in isopropanol with 10% Triton X-100 (40 μL) to give a violet solution. The spectrophotometric absorbance measurement of each well in the 96-well plate was run at 570 nm using a Labsystems Multiskan Ascent microplate reader. The IC50 values and their standard errors were calculated from the viability-concentration curve using Four Parameter Logistic Model of Sigmaplot. The concentration of DMSO per well was ≤1% in all cases. Each experiment was run in triplicate.

[2] = system: ID8 murine ovarian carcinoma cell line (BR+); experiment: In vitro cytotoxicity, standard MTT assay, ID8 cells; format: cell-based
Protocol: as §1, §2
as §3, with “After removing the old medium, these test solutions were added to the wells in the 96-well plate to give the final concentrations ranging from 0.5 to 5,000 nM (100 μL), and the cells were subsequently cultured at 37° C. for 48 h (Table 1) or 72 h (Table 2, Assay 1).” left out
as §6

[3] = system: L1210FR murine lymphocytic leukemia cell line (BR+); experiment: In vitro cytotoxicity, standard MTT assay, L1210FR cells; format: cell-based
Protocol: as §1, §2, §3, §4, §5, §6

[4] = system: L1210 murine lymphocytic leukemia cell line (BR−); experiment: In vitro cytotoxicity, standard MTT assay, L1210 cells; format: cell-based
Protocol: as §1, §2, §3, §6

[5] = In vitro cytotoxicity, standard MTT assay, WI38 cells; format: cell-based, human; conditions: human
Protocol: as §1, §2, §3, §4, §5, §6

[6] = system: BR+ cancer cell lines (L1210FR, MX-1, ID8); experiment: MTT cytotoxicity summarised over BR+ cancer cell lines; format: cell-based
Protocol: as §2, §3, §4, §5, §6
Thus, the Assay 1 results provide the potency of conjugates in the same manner as that for the first assay summarized in Table 1, but for longer incubation time (48 h vs. 72 h). […] Accordingly, this assay may mimic the corresponding in vivo assay conditions, wherein non-internalized conjugates would be removed from the tumor, redistributed and eventually excreted. […] Thus, in principle, the results (IC50 values) in this assay should be very close to those for the control using taxoid 3 (entry 2).

[7] = system: WI38 human lung fibroblast cell line (BR−); experiment: In vitro cytotoxicity, standard MTT assay, WI38 cells; format: cell-based
Protocol: as §1, §2, §3, §4, §5, §6

MCF-7 (breast) = experiment: In vitro cytotoxicity, standard MTT assay, MCF-7 cells; format: cell-based; conditions: 72 h drug incubation
Protocol: as §2
For the MTT assay (Table 1 and the Assay 1 in Table 2) of paclitaxel, taxoid 3 and conjugates 1 and 15, cells were resuspended in 200 μL medium with 8,000 to 10,000 cells per well of a 96-well plate and incubated at 37° C. for 24 h before drug treatment. In DMSO stock solutions, each drug or conjugate was diluted to a series of concentrations in cell culture medium to prepare test solutions. […]
For all experiments, after removing the test medium, fresh solution of MTT in PBS (40 μL of 0.5 mg MTT/mL) was added to the wells, and the cells were incubated at 37° C. for 3 h. […] The spectrophotometric absorbance measurement of each well in the 96-well plate was run at 570 nm using a Labsystems Multiskan Ascent microplate reader. The IC50 values and their standard errors were calculated from the viability-concentration curve using Four Parameter Logistic Model of Sigmaplot. […]

[8] = system: L1210FR murine lymphocytic leukemia cell line (BR+); experiment: In vitro cytotoxicity, standard MTT assay, L1210FR cells; format: cell-based; conditions: 24 hour incubation; read-out: IC50, L1210 FR (leuk.)
[9] = system: WI38 human lung fibroblast cell line (BR−); experiment: In vitro cytotoxicity, standard MTT assay, WI38 cells; format: cell-based; conditions: 24 hour incubation; read-out: IC50, WI38 (normal lung)
[10] = 72 h incubation, no GSH-OEt, read-out: Cytotoxicity IC50, WI38, Assay 1

## CC(=O)O[C@@]12CO[C@@H]1C[C@H](O)[C@@]1(C)C(=O)[C@H](OC(=O)C3CC3)C3=C(C)[C@@H](OC(=O)[C@H](OC(=O)Cc4ccccc4SSC(C)C(=O)NCCNc4nc(NCCOCCOCCOCCNC(=O)CCCC[C@@H]5SC[C@@H]6NC(=O)N[C@@H]65)nc(NCc5cn(CCOCCOCCOCCF)nn5)n4)[C@H](C=C(C)C)NC(=O)OC(C)(C)C)C[C@@](O)([C@@H](OC(=O)c4ccccc4)[C@H]21)C3(C)C (stereo partly drawn) [Conjugate 1]
[1]; Homo sapiens, Breast carcinoma cell, 48 h, read-out: Cytotoxicity IC50, MX-1
  IC50: 21.2 ± 4.6 nM
[1]; Homo sapiens, Breast carcinoma cell, 72 h, read-out: Cytotoxicity IC50, MX-1, Assay 1
  IC50: 6.27 ± 2.06 nM
[1]; Homo sapiens, Breast carcinoma cell, read-out: Cytotoxicity IC50, MX-1, Assay 2
  IC50: 4.79 ± 0.12 nM
[1]; Homo sapiens, Breast carcinoma cell, read-out: Cytotoxicity IC50, MX-1, Assay 3
  IC50: 2.56 ± 0.15 nM
[2]; Mus musculus, Ovarian carcinoma cell, 48 h, read-out: Cytotoxicity IC50, ID8
  IC50: 6.62 ± 0.86 nM
[3]; Mus musculus, 48 h, read-out: Cytotoxicity IC50, L1210FR
  IC50: 14.7 ± 4 nM
[3]; Mus musculus, 72 h, read-out: Cytotoxicity IC50, L1210FR, Assay 1
  IC50: 10.2 ± 3 nM
[3]; Mus musculus, read-out: Cytotoxicity IC50, L1210FR, Assay 2
  IC50: 6.6 ± 3.96 nM
[3]; Mus musculus, read-out: Cytotoxicity IC50, L1210FR, Assay 3
  IC50: 2.79 ± 1.43 nM
[4]; Mus musculus, L1210, 48 h, read-out: Cytotoxicity IC50, L1210
  IC50: 593 nM
[5]; 24 h incubation, PBS wash, then GSH-OEt (6 equiv.) and additional 48 h, read-out: Cytotoxicity IC50, WI38, Assay 2
  IC50 at 72 h: 615 ± 97 nM
[5]; 24 h incubation, then GSH-OEt (6 equiv.) added without washing, additional 48 h, read-out: Cytotoxicity IC50, WI38, Assay 3
  IC50 at 72 h: 12.9 ± 4.3 nM
[5]; [10]
  IC50 at 72 h: 682 ± 110 nM
[5]; incubation at 37° C. for 48 h
  IC50 at 48 h: 709 nM
[6]; 24 h, PBS wash, GSH-OEt, additional 48 h, range over conjugates 1 and 15, read-out: IC50 range against BR+ cancer cells (MX-1, L1210FR), Assay 2
  IC50: 3.85 to 6.6 nM
[6]; 48 h, read-out: Cytotoxicity IC50, range over L1210FR, MX-1 and ID8
  IC50: 6 to 21 nM
[6]; Assay 2
  Cancer cell selectivity (BR-specificity), BR+ cancer cells vs BR− WI38 cells: two-orders of magnitude difference
[6]; GSH-OEt added after 24 h without PBS washing, additional 48 h, range over conjugates 1 and 15, read-out: IC50 range against MX-1 and L1210FR, third assay (Assay 3)
  IC50: 2.4 to 2.92 nM

## CC[C@@]1(OC(=O)Cc2ccccc2SSC(C)CCC(=O)NCCOCCOCCOCCn2cc(CNc3nc(NCCNC(=O)CCC(C)SSc4ccccc4CC(=O)O[C@@H](C(=O)O[C@H]4C[C@@]5(O)[C@@H](OC(=O)c6ccccc6)[C@@H]6[C@]7(OC(C)=O)CO[C@@H]7C[C@H](O)[C@@]6(C)C(=O)[C@H](OC(=O)C6CC6)C(=C4C)C5(C)C)[C@H](C=C(C)C)NC(=O)OC(C)(C)C)nc(NCCOCCOCCOCCNC(=O)CCCC[C@@H]4SC[C@@H]5NC(=O)N[C@@H]54)n3)nn2)C(=O)OCc2c1cc1n(c2=O)Cc2cc3ccccc3nc2-1 (stereo partly drawn) [Compound 116]
[1]; 24 hour incubation, read-out: IC50, MX-1 (breast)
  IC50: 9.8 nM
[1]; 72 h drug incubation, read-out: IC50, MX-1 (breast)
  IC50: 51.7 nM
[2]; 24 hour incubation, read-out: IC50, ID8 (ovarian)
  IC50: 5.66 nM
[2]; 72 h drug incubation, read-out: IC50, ID8 (ovarian)
  IC50: 23.4 nM
[3]; 72 h drug incubation, read-out: IC50, L1210FR (leuk.)
  IC50: 39.1 nM
[4]; 72 h drug incubation, read-out: IC50, L1210 (leuk.)
  IC50: 690 nM
[7]; 72 h drug incubation, read-out: IC50, WI38 (normal lung)
  IC50: 742 nM
MCF-7 (breast)
  IC50: 19 nM
[8]
  IC50: 7.4 nM
[9]
  IC50: 705 nM

## CC(=O)O[C@H]1C(=O)[C@@]2(C)[C@H]([C@H](OC(=O)c3ccccc3)[C@]3(O)C[C@H](OC(=O)[C@H](O)[C@@H](NC(=O)c4ccccc4)c4ccccc4)C(C)=C1C3(C)C)[C@]1(OC(C)=O)CO[C@@H]1C[C@@H]2O [paclitaxel, reference compound]
[1]; Homo sapiens, Breast carcinoma cell, 72 h incubation, no GSH-OEt, read-out: Cytotoxicity IC50, MX-1, Assay 1
  IC50: 4.07 ± 0.8 nM
[1]; Homo sapiens, Breast carcinoma cell, incubation at 37° C. for 48 h, read-out: Cytotoxicity IC50, MX-1
  IC50: 7.23 ± 0.68 nM
[2]; Mus musculus, Ovarian carcinoma cell, incubation at 37° C. for 48 h, read-out: Cytotoxicity IC50, ID8
  IC50: 14.4 ± 1.81 nM
[3]; Mus musculus, 72 h incubation, no GSH-OEt, read-out: Cytotoxicity IC50, L1210FR, Assay 1
  IC50: 35.6 ± 8.2 nM
[3]; Mus musculus, incubation at 37° C. for 48 h, read-out: Cytotoxicity IC50, L1210FR
  IC50: 38.7 ± 17.7 nM
[4]; Mus musculus, L1210, incubation at 37° C. for 48 h, read-out: Cytotoxicity IC50, L1210
  IC50: 77.1 ± 12.8 nM
[7]; [10]
  IC50: 55.7 ± 9.54 nM
[7]; incubation at 37° C. for 48 h, read-out: Cytotoxicity IC50, WI38
  IC50: 61.4 ± 12.7 nM

— patent publication US10280183B2, “Therapeutic agent for treating tumors” (THE RESEARCH FOUNDATION FOR THE STATE UNIVERSITY OF NEW YORK, priority 2014, dated 2019)
